US6384186B2 (priority 1995, dated 2002)
Square brackets hold non-standard residues; d marks the D form. Peptide text beside a SMILES is read from it. NMeI = CC[CH](C)[CH](NC)C(=O)O; NMeV = CN[CH](C(=O)O)C(C)C; Sar = CNCC(=O)O

SMILES: CCC(C)C1NC(=O)C(C(C)C)N(C)C(=O)C(Cc2c[nH]c3ccccc23)NC(=O)CN(C)C(=O)C(C(C)CC)N(C)C(=O)C(C(C)C)NC(=O)CN(C)C(=O)C(C(C)CC)N(C)C(=O)C(C(C)C)N(C)C(=O)CN(C)C(=O)C(C(C)C)N(C)C(=O)C(C(C)C)N(C)C1=O (centres unmarked) [omphalotin] (cyclo([Sar][NMeV][NMeI][Sar]V[NMeI][Sar]W[NMeV]I[NMeV][NMeV]); configuration not given here)
- Efficacy of omphalotin (Fusarium graminearum): 23%
- Efficacy of omphalotin (Pyricularia oryzae): 70%
